Converted amounts (≈) assume the structure as drawn.
Key:
arachidonic acid cascade = experiment: antiinflammatory activity, keratinocyte monolayer PGE2 model; type: cell-based
Experimental: In order to induce inflammation, keratinocytes are incubated with the pro-inflammatory substance phorbol myristate acetate (PMA) for 24 hours in 96-well plates (15,000 cells/well). The preincubated cells (final concentration of PMA 0.1 μg/ml) are incubated with 10^−6 M indometacin (positive control) or 0.2 mM [5-hydroxy-7-methoxy-2-(4′-methoxyphenyl)-4-oxo-4H-chromen-8-yl]sulfonic acid monoester for 24 hours. The negative control used is a control culture comprising no PMA. After incubation, the content of prostaglandin E2 (PGE2) in all three samples is determined by ELISA kits.

water solubility = type: physicochemical; settings: at 25° C.
[1] = tested on: epican gene (hyaluronic acid receptor); experiment: cDNA array gene expression: epican gene; type: cell-based, human; settings: detectable by cDNA array
Experimental: (§1) The influence on the expression of the said genes can be detected by means of a cDNA array.
(§2) The culture medium in cell cultures (human keratinocytes) is replaced by culture medium with (test) or without test substance (control). The cells are cultivated further for a defined time, harvested and frozen at −80°.
(§3) The RNA is extracted, where each culture comprises about 200 μg of RNA. The solution is adjusted to 1 μg/μl of RNA and treated with DNAse I in order to remove all DNA residues. The amount of RNA is adjusted to 2 μg/ml.
(§4) The mRNA is transcribed to cDNA ^32P-labelled samples and purified by chromatography.
(§5) The DNA sequences are immobilised on cDNA chip membranes and hybridised (overnight at 68° C). The membranes are washed intensively, and the radioactivity of each measurement point is measured. An increase in the radioactivity means upregulation of the corresponding RNA compared with the control.

transglutaminase = experiment: cDNA array gene expression in human keratinocytes: transglutaminase gene; type: cell-based; settings: detectable by cDNA array
Experimental: The influence on the expression of the said genes can be detected by means of a cDNA array. Expression of the Transqlutaminase Gene The culture medium in cell cultures (human keratinocytes) is replaced by culture medium with (test) or without test substance (control). The cells are cultivated further for a defined time, harvested and frozen at −80°. The RNA is extracted, where each culture comprises about 200 μg of RNA. The solution is adjusted to 1 μg/μl of RNA and treated with DNAse I in order to remove all DNA residues. The amount of RNA is adjusted to 2 μg/ml. The mRNA is transcribed to cDNA ^32P-labelled samples and purified by chromatography. The DNA sequences are immobilised on cDNA chip membranes and hybridised (overnight at 68° C). The membranes are washed intensively, and the radioactivity of each measurement point is measured. An increase in the radioactivity means upregulation of the corresponding RNA compared with the control.

[2] = tested on: tissue inhibitor of metalloproteinase 1 precursor (TIMP1); experiment: cDNA array gene expression: TIMP1; type: cell-based, human; settings: detectable by cDNA array
Experimental: as §1, §2, §3, §4, §5

solubility (water solubility): 21 mg/mL (≈ 53.3 mM) | expression of the epican gene (hyaluronic acid receptor) [1]: induces the expression | gene expression of transglutaminase (transglutaminase): induction of gene expression | synthesis of tissue inhibitor of metalloproteinase 1 precursor (TIMP1) [2]: induces the synthesis
SMILES: COc1ccc(-c2cc(=O)c3c(O)cc(OC)c(OS(=O)(=O)O)c3o2)cc1 [[5-hydroxy-7-methoxy-2-(4′-methoxyphenyl)-4-oxo-4H-chromen-8-yl]sulfonic acid monoester]
effect on the arachidonic acid cascade (antiinflammatory action) (arachidonic acid cascade): inhibits the arachidonic acid cascade
